# Positions count from the first letter of the chain named.
# How the values were obtained:
# [1] = target: T1, peroxisome proliferator-activated receptor α (PPARα) (Homo sapiens, UniProt Q07869); assay: microscale thermophoresis with purified recombinant EGFP-PPARα LBD; assay type: binding
# T1 construct: gene PPARA
# T1 sequence (Q07869 200-468): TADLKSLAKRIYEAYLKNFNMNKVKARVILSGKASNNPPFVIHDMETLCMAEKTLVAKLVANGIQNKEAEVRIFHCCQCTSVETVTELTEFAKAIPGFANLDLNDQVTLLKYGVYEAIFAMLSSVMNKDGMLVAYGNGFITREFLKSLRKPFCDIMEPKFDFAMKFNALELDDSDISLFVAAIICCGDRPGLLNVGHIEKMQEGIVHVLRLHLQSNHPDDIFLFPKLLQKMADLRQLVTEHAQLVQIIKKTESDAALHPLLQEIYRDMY
# [2] = target: T2, peroxisome proliferator-activated receptor α (PPARα) (Homo sapiens, UniProt Q07869, T283A); assay: microscale thermophoresis with purified recombinant EGFP-PPARα LBD T283A; assay type: binding
# T2 construct: gene PPARA
# T2 sequence (Q07869 200-468 T283A): T1 sequence (Q07869 200-468) with T84A
smiles,measurement,setting,value
"Cc1cccc2c3c(ccc12)C1=C(C(=O)C3=O)[C@@H](C)CO1 [DhT, dihydrotanshinone I]",Kd,[1],1.66 ± 0.5 µM
same,Kd,[2],32.9 ± 6.1 µM

# From paper PMC11727260, “Free Cholesterol‐Induced Liver Injury in Non‐Alcoholic Fatty Liver Disease: Mechanisms and a Therapeutic Intervention Using Dihydrotanshinone I” (Advanced Science, 2024)
